{"source": "patent US10329243B2", "about": "“Biphenyl derivative and uses thereof” (XI'AN LIBANG PHARMACEUTICAL CO., LTD, priority 2015, dated 2019)", "assay_type_in_all_cases": "in vivo, SD rats", "key": {"brain cell apoptosis": {"test_system": "brain cell apoptosis", "test": "Apoptosis determination (TUNEL method), cerebral ischemic reperfusion MCAO model", "protocol": "(§1) Rats were intraperitoneally injected with 10% chloral hydrate 350 mg/kg after anesthesia and opened up at the center of the neck in accordance with the Zea Longa modified method. The right common carotid artery was separated, and the right external carotid artery branches was ligated. A small opening was made at the distal end of the external carotid artery, and a previously prepared thread was inserted through the common carotid artery and the external carotid artery bifurcation into the internal carotid artery, till the anterior end of the middle cerebral artery, with an immersed depth of 18 to 19 mm. The thread was then secured, and the wound was sutured layer by layer. After the operation, the rats were placed in a clean incubator to wake up. […] The sham operation group, the ischemic reperfusion group, and the Example groups were prepared strictly according to the requirements of the cerebral ischemic reperfusion model, while in the sham operation group the thread was put only into the external carotid artery. The animals were allowed to eat and drink freely after waking up. After 2 h, the thread was pulled out to achieve reperfusion. The sham operation group, the ischemic reperfusion group, and the Example groups were administered intravenously the aqueous solution of the biphenyl derivatives in PEG400 at 40 mg/kg (40 mg/kg means that 40 mg of the test compound per kg of the body weight of rats) 30 min before reperfusion and 12 h after reperfusion, respectively. The sham operation group and the ischemic reperfusion group were injected with the same amount of blank PEG400 aqueous solution at the same time point.\n(§2) 24 hours after reperfusion, 8 rats in each group were sacrificed by decapitation, the brain was removed, rinsed with PBS (pH 7.4) at −20° i for 20 min, evenly sliced (with a thickness of 2 mm), stained in a 2% TTC solution at 37°% in the dark for 30 min, fixed in 10% formalin for 24 h, and photographs were taken to analyze the infarct volume. A mixture of femoral arterial and venous blood was drawn from another 8 rats in each group under anesthesia, placed in a low temperature centrifuge at 4° C., centrifuged at 3500 r/min for 20 min, and the supernatant was stored in a refrigerator at −20° C. ready for SOD and MDA detection. After the blood was drawn, a perfusion needle was insert through the apex to the ascending aorta, and saline at 4° C. was rapid infused until the effluent became clear, followed by 4% paraformaldehyde phosphate buffer perfusion for fixation; the brain was removed by craniotomy, and brain tissues 2 mm in front of and behind the optic chiasma were taken and fixed, dehydrated, rendered transparent, impregnated in wax, and embedded. Brain continuous coronary tissue pathological sections were consecutively cut for later use. The remaining 8 rats in each group were sacrificed, brains were removed, the ischemic brain hemispheres were immediately taken on an ice tray, and 10% brain tissue homogenate was prepared for the detection of IL-1β and TNF-α.\nThe TUNEL method was used for determination. Brain tissue paraffin sections were dewaxed into water, washed with 3% H2O2 to eliminate endogenous peroxidase activity, and rinsed with distilled water for 2 min, repeated 3 times. A labelling solution was added for labelling at 37°t for 2 h, and a blocking solution was added for blocking at room temperature for 30 min. A biotinylated anti-digoxin antibody was added for a reaction at 37°a for 30 min, and SABC was added for a reaction at 37°a for 30 min. The sections were continuously rinsed with TBS for 5 min repeatedly for 4 times, stained with DAB, sufficiently washed, mild counterstained with Hematoxylin, gradient dehydrated with alcohol, made transparent with toluene, sealed and fixed. Five non-overlapping fields in semi-dark band were randomly selected from each section and inputted into the image analysis system."}, "Fas": {"test_system": "Fas", "test": "Fas determination (immunohistochemical method), cerebral ischemic reperfusion MCAO model", "protocol": "as §1, §2\nThe immunohistochemical method was used for determination. Brain tissue paraffin sections were dewaxed into water, washed with 3% H2O2 to eliminate endogenous peroxidase activity, and rinsed with distilled water for 3 times. Sodium citrate buffer was used for antigen heat repairing, and blocking with calf serum was carried out at room temperature for 15 min; a rabbit anti-mouse Fas antibody was added dropwise, allowed to stand at 4°t overnight, biotinylated goat anti-rabbit IgG was added dropwise, and heated in a water bath at 37°a for 20 min. Washing with PBS for 5 min was continuously repeated 4 times, followed by staining with DAB and sufficient washing without counterstaining. The sections were then gradient dehydrated with alcohol, made transparent with toluene, sealed and fixed. Images were captured by a video camera under high-power optical microscope and inputted into the image analysis system for image analysis. […]"}, "[1]": {"test_system": "rats with permanent cerebral ischemia injury", "test": "Relative infarct volume (TTC, imageJ), permanent cerebral ischemia model", "conditions": "for Relative Brain infarction volume (%): 40 mg/kg intravenously 30 min before insertion of thread and 12 h after embolism, 24 h after the embolism", "protocol": "as §1, with “the permanent cerebral ischemia model” for “the ischemic reperfusion”, “up.” for “up. After 2 h, the thread was pulled out to achieve reperfusion.”, “before insertion of thread” for “before reperfusion”, “after embolism,” for “after reperfusion,”\nas §2, with “the embolism,” for “reperfusion,”, “−20°i” for “−20° i”\nThe infarct area in each brain section was analyzed and quantified by the imageJ image software, and the ratio of cerebral infarction volume in the overall brain volume was calculated."}, "[2]": {"conditions": "ischemic reperfusion rat model, edaravone 3 mg/kg"}, "[3]": {"conditions": "ischemic reperfusion MCAO rats, 40 mg/kg intravenously, brain sections 24 h after reperfusion, TUNEL, average of five fields"}, "[4]": {"conditions": "ischemic reperfusion MCAO rats, 40 mg/kg intravenously, brain sections 24 h after reperfusion, gray scale inversely proportional to positive expression"}}, "data": [{"compound": "3,3′,5,5′-tetraisopropylbiphenyl-4,4′-bis(oxymethylene phosphate) [Example 3 group]", "values": [{"measurement": "Number of apoptotic cells", "setting": "brain cell apoptosis; rat, in vivo, iv, 40 mg/kg", "value": "25.14 ± 2.54"}, {"measurement": "Fas average gray scale", "setting": "Fas; rat, in vivo, iv, 40 mg/kg", "value": "144.56 ± 6.32"}]}, {"compound": "CC1=NN(c2ccccc2)C(=O)C1", "note": "[Edaravone injection, edaravone, reference compound]", "values": [{"measurement": "Brain relative infarct volume (%)", "setting": "[1]; edaravone 3 mg/kg", "value": "31.29 ± 4.02", "unit": "%"}, {"measurement": "Number of apoptotic cells", "setting": "brain cell apoptosis; [2]", "value": "28.6 ± 4.90"}, {"measurement": "Fas average gray scale", "setting": "Fas; [2]", "value": "139.65 ± 2.05"}]}, {"compound": "CC(=O)Oc1c(C(C)C)cc(-c2cc(C(C)C)c(O)c(C(C)C)c2)cc1C(C)C", "note": "[Example 1 group, 4′-hydroxy-3,3′,5,5′-tetraisopropylbiphenyl-4-acetate]", "values": [{"measurement": "Relative Brain infarction volume (%)", "setting": "[1]; 40 mg/kg", "value": "24.71 ± 3.76", "unit": "%"}]}, {"compound": "CC(=O)Oc1c(C(C)C)cc(-c2cc(C(C)C)c(OC(C)=O)c(C(C)C)c2)cc1C(C)C", "note": "[Example 2 group, 3,3′,5,5′-tetraisopropylbiphenyl-4′-diacetate]", "values": [{"measurement": "Relative Brain infarction volume (%)", "setting": "[1]", "value": "27.92 ± 4.51", "unit": "%"}, {"measurement": "Number of apoptotic cells", "setting": "brain cell apoptosis; [3]", "value": "24.65 ± 3.41"}, {"measurement": "Fas average gray scale", "setting": "Fas; [4]", "value": "148.36 ± 5.33"}]}, {"compound": "CC(C)c1cc(-c2cc(C(C)C)c(OC(=O)CCC(=O)O)c(C(C)C)c2)cc(C(C)C)c1O", "note": "[Example 5 group, [4-(4′-hydroxy-3,3′,5,5′-tetraisopropylbiphenyl)oxy]-4-carbonyl butyric acid]", "values": [{"measurement": "Relative Brain infarction volume (%)", "setting": "[1]", "value": "28.37 ± 5.02", "unit": "%"}, {"measurement": "Number of apoptotic cells", "setting": "brain cell apoptosis; [3]", "value": "20.56 ± 4.29"}, {"measurement": "Fas average gray scale", "setting": "Fas; [4]", "value": "148.02 ± 4.16"}]}, {"compound": "CCCc1cc(-c2cc(CCC)c(O)c(C(C)C)c2)cc(C(C)C)c1O", "note": "[Example 6 group, 4,4′-dihydroxy-3,3′-diisopropyl-5,5′-dipropylbiphenyl]", "values": [{"measurement": "Relative Brain infarction volume (%)", "setting": "[1]", "value": "22.53 ± 4.62", "unit": "%"}, {"measurement": "Number of apoptotic cells", "setting": "brain cell apoptosis; [3]", "value": "19.47 ± 5.02"}, {"measurement": "Fas average gray scale", "setting": "Fas; [4]", "value": "155.33 ± 3.78"}]}, {"compound": "CCCc1cc(-c2cc(CCC)c(O)c(CCC)c2)cc(CCC)c1O", "note": "[Example 7 group, 4,4′-dihydroxy-3,3′,5,5′-tetrapropylbiphenyl]", "values": [{"measurement": "Relative Brain infarction volume (%)", "setting": "[1]", "value": "21.39 ± 4.01", "unit": "%"}, {"measurement": "Number of apoptotic cells", "setting": "brain cell apoptosis; [3]", "value": "20.28 ± 3.76"}, {"measurement": "Fas average gray scale", "setting": "Fas; [4]", "value": "157.26 ± 4.05"}]}, {"compound": "CC(C)c1cc(-c2cc(C(C)C)c(C(=O)O)c(C(C)C)c2)cc(C(C)C)c1O", "note": "[Example 8 group, 4′-hydroxy-3,3′,5,5′-tetraisopropylbiphenyl-4-carboxylic acid]", "values": [{"measurement": "Relative Brain infarction volume (%)", "setting": "[1]", "value": "29.74 ± 3.13", "unit": "%"}, {"measurement": "Number of apoptotic cells", "setting": "brain cell apoptosis; [3]", "value": "24.81 ± 3.35"}, {"measurement": "Fas average gray scale", "setting": "Fas; [4]", "value": "148.82 ± 7.62"}]}, {"compound": "CC(C)c1cc(-c2cc(C(C)C)c(Cl)c(C(C)C)c2)cc(C(C)C)c1O", "note": "[Example 9 group, 4-chloro-4′-hydroxy-3,3′,5,5′-tetraisopropylbiphenyl]", "values": [{"measurement": "Number of apoptotic cells", "setting": "brain cell apoptosis; rat, in vivo, iv, 40 mg/kg", "value": "25.47 ± 4.19"}, {"measurement": "Fas average gray scale", "setting": "Fas; rat, in vivo, iv, 40 mg/kg", "value": "147.11 ± 5.61"}]}, {"compound": "CC(C)c1cc(-c2cc(C(C)C)c(OC=O)c(C(C)C)c2)cc(C(C)C)c1O", "note": "[Example 10 group]", "values": [{"measurement": "Relative Brain infarction volume (%)", "setting": "[1]", "value": "26.46 ± 4.52", "unit": "%"}, {"measurement": "Number of apoptotic cells", "setting": "brain cell apoptosis; [3]", "value": "22.18 ± 5.22"}, {"measurement": "Fas average gray scale", "setting": "Fas; [4]", "value": "145.06 ± 4.08"}]}, {"compound": "CC(C)c1cc(-c2cc(C(C)C)c(OC(=O)C(N)C(C)C)c(C(C)C)c2)cc(C(C)C)c1O", "note": "(centres unmarked) [Example 11 group, 4′-hydroxy-3,3′,5,5′-tetraisopropylbiphenyl-2-amino-3-methylbutyrate]", "values": [{"measurement": "Relative Brain infarction volume (%)", "setting": "[1]", "value": "28.98 ± 5.24", "unit": "%"}, {"measurement": "Number of apoptotic cells", "setting": "brain cell apoptosis; [3]", "value": "24.19 ± 4.29"}, {"measurement": "Fas average gray scale", "setting": "Fas; [4]", "value": "152.12 ± 6.17"}]}, {"compound": "CC(=O)OC(C)Oc1c(C(C)C)cc(-c2cc(C(C)C)c(O)c(C(C)C)c2)cc1C(C)C", "note": "(centres unmarked) [Example 12 group, Ethyl 1-(4′-hydroxy-3,3′,5,5′-tetraisopropylbiphenyl-4-oxo)acetate]", "values": [{"measurement": "Relative Brain infarction volume (%)", "setting": "[1]", "value": "31.79 ± 5.94", "unit": "%"}, {"measurement": "Number of apoptotic cells", "setting": "brain cell apoptosis; [3]", "value": "26.27 ± 5.37"}, {"measurement": "Fas average gray scale", "setting": "Fas; [4]", "value": "144.26 ± 3.47"}]}]}
